≈ marks a conversion by molar mass, not a printed value.
Tests used:
[1] = system: C. albicans strain DAY185; assay: in vitro antifungal activity (MIC) in the co-inoculation assay, turbidity read visually; type: cell-based; details: co-inoculation assay, two-fold serial dilutions, C. albicans DAY185
Procedure: (§1) The procedure for the co-inoculation antifungal compound screen were conducted as previously described (Okoli et al., PLoS ONE, 4:e7025 (2009); Tampakakis et al., Nat Protocols, 3:1925-1931 (2008)), using the C. albicans strain DAY185 (Davis et al., Infect Immun, 68:5953-5959 (2000)) and the C. elegans glp-4;sek-1 double mutant.
The determination of the lowest concentration of the selected compounds showing in vitro antifungal activity was accomplished by following the steps detailed in the co-inoculation assay, using two-fold serial dilutions of the test compounds.

[2] = system: C. albicans DAY185 hyphae; assay: in vitro hyphal inhibition in RPMI 1640; type: cell-based
Procedure: (§2) Caspofungin (Merck) served as a known antifungal compound control. In vitro hyphal inhibition was assessed by incubation of DAY185 in RPMI 1640 media at 37° C. After 48 hours the cultures were visually inspected for hyphal formation by microscopy. The ability of the antifungal compound A16, at either 2 or 4 μg/mL, to induce osmotic stress was assessed using DAY185 grown in a 96 well microtiter plate containing RPMI 1640 media and NaCl, ranging in concentrations from 0-2 M in 0.25 M increments. The growth of the fungus was measured spectrophotometrically after 48 hours of growth at 35° C.
C. albicans biofilms are composed of hyphae, pseudohyphae, yeast cells, and an extracellular matrix, where the hyphae play an integral role within this complex. In order to address the reduction in biofilm formation in the presence of saponins, we tested the ability of compound A16 to inhibit hyphae formation at various concentrations in RPMI.

C. albicans cells = assay: photosensitizer uptake by fluorescence spectrofluorimetry; type: cell-based; details: addition of A16 to RB, ce6, PEI-ce6
Procedure: In order to confirm that the increase in phototoxicity observed by combining the different PS with A16 is actually due to an increase of cellular uptake of the PS by the cells and to document that the antifungal efficacy of saponins against C. albicans is associated with increased permeability, the amount of dye within the cell was measured by fluorescence spectrofluorimetry.
Cell suspensions (10^8 cells/mL) were incubated in the dark as above using the same concentrations as for the PDI assays measured as μM PS equivalent (final concentration in incubation medium). Incubations were carried out in triplicate. Cell suspensions were centrifuged (12000 rpm, 1 min) and washed twice in 1 mL sterile PBS. The cell pellet was dissolved in 1.5 mL 0.1 M NaOH/1% SDS for 24 h to yield a homogenous solution. Uptake was determined by measurement of fluorescence in black 96-well flat-bottom plates (Costar) in a final volume of 200 μL using a Spectramax Gemini spectrofluorimeter (Molecular Devices) at 400 nmex/580-700 nmem for ce6, PEI-ce6 and 552 nmex/555-620 nmem for RB. Uptake values were obtained as previously described (Tegos et al., Antimicrob Agents Chemother, 50:196-203(2006)).
The cellular uptake of dye can be expressed as molecules per cell by correlation of the extracted PS concentration with the number of C. albicans cells present.

C. elegans = assay: toxicity to the nematode in dose response experiments; details: dose response experiments, higher concentrations
Text: (§3) This assay allows simultaneous assessment of a compound's potential toxicity and the ability to promote the survival of the nematode in the presence of C. albicans, including modes of action not traditionally considered in antifungal assays such as impeding a fungal virulence factor or promoting host immune response. We performed a screen of 2,560 natural products representing a fraction of the Analyiticon Discovery compound collection (ac-discovery.com) housed at the Broad Institute of Harvard and MIT (Cambridge, Mass.). […] These natural products identified in the primary screen were retested and confirmed (FIG. 1; Table 1). […] Moreover, although the antifungal effects of some of these saponins have been reported (Sata et al., Biosci Biotechnol Biochem, 62:1904-1911 (1998); Ohtani et al., Phytochem, 33:83-86 (1993)), their efficacy against Candida spp. has not been studied.
Representatives of the saponins family are able to disrupt cellular membranes and the lytic activity on erythrocytes has been used as an assay for some saponins Francis et al., British Journal of Nutrition, 88:587-605 (2002)). This property is derived from the affinity of some saponins for binding cholesterol forming insoluble pores composed of the sterol and saponins (Bangham et al., Nature, 196:952-953(1962); Glauert et al., Nature, 196:953-955 (1962)). […] The dose-response experiments previously used to determine the EC50 and approximate the MIC can also indicate if the saponins maybe toxic to C. elegans and potentially to mammalian cells.

C. albicans = assay: C. elegans-C. albicans co-inoculation assay, nematode survival; type: in vivo
Procedure: as §1, §3
After confirmation of these hits, dose response experiments were conducted to determine the concentration that provided maximum nematode survival. The compounds conferred a range of nematode survival from 27% (compound A6) to 93% (compounds A2, A7, A24, and A25), however, with the exception of A6, all compounds conferred a nematode survival over 65% (FIG. 1).

C. albicans DAY185 = assay: NaCl induced osmotic stress growth assay; type: cell-based; details: 2 μg/mL A16; untreated control 1.25 M
Procedure: as §2
The C. albicans cell wall and membrane are important for osmoregulation to maintain proper physiological conditions to carryout enzymatic reactions. Since saponins are able to disrupt the fungal cell membrane, external osmotic stress should also have detrimental effects on the fungal cell. C. albicans was grown in the presence of 2 μg/mL of compound A16 under various salt concentrations to assess the effect the saponin has on salt induced osmotic stress.

CC1CC[C@@]2(OC1)O[C@H]1CC3C4C[C@@H](O)C5C[C@@H](O[C@@H]6O[C@H](CO)[C@H](O[C@@H]7O[C@H](CO)[C@@H](O)[C@H](O[C@@H]8OC[C@@H](O)[C@H](O)[C@H]8O)[C@H]7O[C@@H]7O[C@H](CO)[C@@H](O)[C@H](O)[C@H]7O)[C@H](O)[C@H]6O)[C@H](O)C[C@]5(C)C4CC[C@]3(C)[C@H]1[C@@H]2C (some centres unmarked) [A16, Aginoside]
MIC in vitro [1]: 47.0 µg/mL (≈ 44 µM) | hyphae formation ([2]; 1 μg/mL): visible reduction in the number of hyphae | hyphae formation ([2]; 2 μg/mL): very few hyphae formed | effect on uptake of PS by the cells (C. albicans cells): dramatically increased the uptake of PS | toxicity to the nematode (C. elegans): none of the concentrations used in the dose response experiment showed signs of toxicity | maximum nematode survival (C. albicans; dose response, C. albicans-infected C. elegans): 67% | EC50 in vivo (C. albicans; dose that resulted in 50% survival of C. albicans-infected nematodes): 47.0 µg/mL (≈ 44 µM) | NaCl concentration at which the fungus was unable to grow (C. albicans DAY185): 0.5 M

Reference: patent US8987217B2, “Modified saponins for the treatment of fungal infections” (The General Hospital Corporation, priority 2010, dated 2015)
